# “And” between values parts separate entries of the source, which are not always exact repeats. Equal values may be shown once. After the bases stand the sugars from the 5' end (letter, count) and the backbone: PS all phosphorothioate, else s phosphorothioate and o phosphodiester by linkage. Methylation of C is not given here. e = 2'-O-(2-methoxyethyl) (MOE); l = locked nucleic acid (LNA); d = 2'-deoxy (DNA)
# Tests used:
# DGAT2 = details: ASO
# SNHG14 = details: ASO, Human Neuronal Cell
Sequence,"target mRNA inhibition (DGAT2; HepG2, 0.12 µM)","target mRNA inhibition (DGAT2; HepG2, 2.5 µM)","target mRNA inhibition (DGAT2; HepG2, 10 µM)",further results
"AAAAACATGACAGCCAGGGT (sugars e5 d10 e5, PS)",31%,–,–,–
"AAAAACCACTGTTGCTGAGC (sugars e5 d10 e5, PS)",–,62%,92%,–
"AAAATCCATGTCAGAGAGGC (sugars e5 d10 e5, PS)",–,64%,90%,–
"AAACCACTGTTGCTGAGCTC (sugars e5 d10 e5, PS)",–,71% and 58%,84% and 73%,–
"AAACTTAGGCATGCTTCCTC (sugars e5 d10 e5, PS)",–,84%,56%,–
"AAAGATATAGTTCCTGGTGG (sugars e5 d10 e5, PS)",54%,–,–,–
"AAAGGAGTTTGTGTTTCCCA (sugars e5 d10 e5, PS)",–,73%,91%,–
"AAATGGTAGCCCCTTGTTGC (sugars e5 d10 e5, PS)",32%,–,–,–
"AACACTCACAGCACTTTACC (sugars e5 d10 e5, PS)",4%,–,–,–
"AACCAACTCTCAGCTACTCC (sugars e5 d10 e5, PS)",–,82% and 71%,93% and 97%,–
"AAGCCCTTGCGGTTCCGCAG (sugars e5 d10 e5, PS)",67%,–,–,–
"AAGCCTGGATGGTGGTTGCA (sugars e5 d10 e5, PS)",–,82% and 66%,91% and 82%,–
"AAGGCACCCAGGCCCATGAT (sugars e5 d10 e5, PS)",46%,–,–,–
"AAGGCCAGGCCCCTTCTGAA (sugars e5 d10 e5, PS)",32%,–,–,–
"AATGCCAATGCCTAGGTCAC (sugars e5 d10 e5, PS)",–,72%,90%,–
"ACAATGGGAATGGTATCGCA (sugars e5 d10 e5, PS)",–,59%,92%,–
"ACACGCAGACCAGGACAGCT (sugars e5 d10 e5, PS)",46%,–,–,–
"ACAGCAGCAGTCTAATCCAT (sugars e5 d10 e5, PS)",–,57%,87%,–
"ACAGCTGTGATGACTTCCCA (sugars e5 d10 e5, PS)",–,88%,77%,–
"ACAGGACCCACTGGAGCACT (sugars e3 d14 e3, PS)",61%,–,–,–
"ACCAACTCTCAGCTACTCCC (sugars e5 d10 e5, PS)",–,95%,85%,–
"ACCACTGTTGCTGAGCTCAT (sugars e5 d10 e5, PS)",–,67%,90%,–

Sequence,"target mRNA inhibition (DGAT2; HepG2, 0.12 µM)","target mRNA inhibition (DGAT2; HepG2, 2.5 µM)","target mRNA inhibition (DGAT2; HepG2, 10 µM)",further results
"ACCAGGGCCTCCATGTACAT (sugars e3 d14 e3, PS)",84%,27% and 24%,63% and 50%,"target mRNA inhibition (DGAT2; HepG2, 20 µM): 26%"
"ACCAGGGCCTCCATGTACAT (sugars e5 d10 e5, PS)",–,30%,32% and 50%,"target mRNA inhibition (DGAT2; HepG2, 20 µM): 48%"
"ACCCACTGGAGCACTGAGAT (sugars e3 d14 e3, PS)",59%,–,–,–
"ACCCACTGGAGCACTGAGAT (sugars e5 d10 e5, PS)",72%,–,–,–
"ACTGGTCCTGCAGTTTCAGG (sugars e5 d10 e5, PS)",55%,–,–,–
"AGAAAAAGCAACCAAAGCAC (sugars e5 d10 e5, PS)",–,19%,82%,–
"AGAAGAGCAAAGGCTTGCTT (sugars e5 d10 e5, PS)",–,74% and 72%,94% and 93%,–
"AGAGAGACAATGAGTAAGGG (sugars e5 d10 e5, PS)",–,68%,79%,–
"AGAGGCCCTGGACACTGGCC (sugars e5 d10 e5, PS)",32%,–,–,–
"AGCAATGCCAATGCCTAGGT (sugars e5 d10 e5, PS)",–,82%,93%,–
"AGCATTGCCACTCCCATTCT (sugars e3 d14 e3, PS)",67%,–,–,–
"AGCATTGCCACTCCCATTCT (sugars e5 d10 e5, PS)",74%,–,–,–
"AGCCTGCCACAGGGCCCTTT (sugars e5 d10 e5, PS)",37%,–,–,–
"AGCCTGGACAAGTCCTGCCC (sugars e3 d14 e3, PS)",82%,35% and 53%,84%,"target mRNA inhibition (DGAT2; HepG2, 20 µM): 59%"
"AGCTCAGAGACTCAGCCGCA (sugars e3 d14 e3, PS)",77%,–,–,–
"AGCTCTCAAGTCTTCCTCCT (sugars e5 d10 e5, PS)",–,62% and 76%,89% and 92%,–
"AGCTGTGATGACTTCCCAGG (sugars e5 d10 e5, PS)",–,52%,91%,–
"AGGACCCCGGAGTAGGCGGC (sugars e3 d14 e3, PS)",76%,–,–,–
"AGGAGTTCTCGAATATCCCT (sugars e5 d10 e5, PS)",–,55% and 50%,87%,–
"AGGAGTTTGTGTTTCCCATT (sugars e5 d10 e5, PS)",39%,–,–,–
"AGGATGCAGGGTTACCCAGC (sugars e5 d10 e5, PS)",–,81%,71%,–
"AGGCAAAGTAACATACCTGC (sugars e5 d10 e5, PS)",–,71% and 74%,94% and 91%,–

Sequence,"target mRNA inhibition (DGAT2; HepG2, 0.12 µM)","target mRNA inhibition (DGAT2; HepG2, 2.5 µM)","target mRNA inhibition (DGAT2; HepG2, 10 µM)",further results
"AGGCATGGAGCTCAGAGACT (sugars e5 d10 e5, PS)",69% and 83%,39%,84%,"target mRNA inhibition (DGAT2; HepG2, 20 µM): 51%"
"AGGGCCAGTTTCACAAAGCC (sugars e5 d10 e5, PS)",33%,–,–,–
"AGGGTTCATGGATCCCC (sugars e3 d10 e4, PS)",–,46%,76%,–
"AGGTAAGGCCGTATGCCTGG (sugars e2 d13 e5, PS)",63%,–,–,–
"AGGTAGAGTTCTATTGCTTC (sugars e5 d10 e5, PS)",–,81%,88% and 92%,–
"AGGTTGTGTGTCTTCACCAG (sugars e2 d13 e5, PS)",61%,–,–,–
"AGTAGGGCACCAGCCCCCAG (sugars e5 d10 e5, PS)",0%,–,–,–
"AGTCAAACCTAGGTTCAGAC (sugars e5 d10 e5, PS)",–,81%,55%,–
"AGTTTCGGACCCACTGTGAC (sugars e3 d14 e3, PS)",60%,–,–,–
"ATACCTCCAGACATCAGGTA (sugars e5 d10 e5, PS)",50%,–,–,–
"ATAGCATTGCCACTCCCATT (sugars e2 d13 e5, PS)",57%,–,–,–
"ATAGCATTGCCACTCCCATT (sugars e5 d10 e5, PS)",57%,–,–,–
"ATATAGTTCCTGGTGGTCAG (sugars e5 d10 e5, PS)",53%,–,–,–
"ATCACAATATATGGGCAAGC (sugars e5 d10 e5, PS)",–,83% and 86%,92% and 94%,–
"TTGTCAATCTTTATTCT (sugars l4 d11 l2, PS)",–,–,–,target mRNA inhibition (SNHG14; 0.2 µM): 33%; target mRNA inhibition (SNHG14; 1 µM): 45%
"TTTACACTTAATTATACTTC (sugars lddldldddddddlldllll, PS)",–,–,–,target mRNA inhibition (SNHG14; 7.5 µM): 36%
"TTTACACTTAATTATACTTC (sugars ldlllddddddddlllddll, PS)",–,–,–,target mRNA inhibition (SNHG14; 7.5 µM): 48%
"TTTACTCTGCAATACA (sugars l2 d10 l4, PS)",–,–,–,target mRNA inhibition (SNHG14; 0.2 µM): 45%; target mRNA inhibition (SNHG14; 1 µM): 60%
"TTTATACCTTTCTTTAACCC (sugars l1 d13 l1 d3 l2, PS)",–,–,–,target mRNA inhibition (SNHG14; 7.5 µM): 57%
"TTTATACCTTTCTTTAACCC (sugars l1 d14 l1 d2 l2, PS)",–,–,–,target mRNA inhibition (SNHG14; 7.5 µM): 53%
"TTTATCAATATCTTCTCA (sugars lddddlddddddldllll, PS)",–,–,–,target mRNA inhibition (SNHG14; 7.5 µM): 61%
"TTTATCAATATCTTCTCA (sugars lddlllddddddddldll, PS)",–,–,–,target mRNA inhibition (SNHG14; 7.5 µM): 67%

Sequence,"target mRNA inhibition (DGAT2; HepG2, 0.12 µM)","target mRNA inhibition (DGAT2; HepG2, 2.5 µM)","target mRNA inhibition (DGAT2; HepG2, 10 µM)",further results
"TTTATCAATATCTTCTCA (sugars lldldldddddddlldll, PS)",–,–,–,target mRNA inhibition (SNHG14; 7.5 µM): 66%
"TTTATCAATATCTTCTCA (sugars lllddlddddddldldll, PS)",–,–,–,target mRNA inhibition (SNHG14; 7.5 µM): 37%
"TTTATCAATATCTTCTCAC (sugars lldldlddddddddldlll, PS)",–,–,–,target mRNA inhibition (SNHG14; 7.5 µM): 63%
"TTTATCAATATCTTCTCACT (sugars ldddddldddddddlddlll, PS)",–,–,–,target mRNA inhibition (SNHG14; 7.5 µM): 45%
"TTTATCAATATCTTCTCACT (sugars lddddlddddddddldddll, PS)",–,–,–,target mRNA inhibition (SNHG14; 7.5 µM): 34%
"TTTATCAATATCTTCTCACT (sugars lddlddddddddddlddlll, PS)",–,–,–,target mRNA inhibition (SNHG14; 7.5 µM): 53%
"TTTATCAATATCTTCTCACT (sugars lddlddldddddddddddll, PS)",–,–,–,target mRNA inhibition (SNHG14; 7.5 µM): 28%
"TTTATCTCATGACCACC (sugars l2 d11 l4, PS)",–,–,–,target mRNA inhibition (SNHG14; 0.2 µM): 54%; target mRNA inhibition (SNHG14; 1 µM): 56%
"TTTATGTTTACTTCAT (sugars l3 d10 l3, PS)",–,–,–,target mRNA inhibition (SNHG14; 0.2 µM): 33%; target mRNA inhibition (SNHG14; 1 µM): 47%
"TTTATTAGATTACTCC (sugars l2 d10 l4, PS)",–,–,–,target mRNA inhibition (SNHG14; 0.2 µM): 24%; target mRNA inhibition (SNHG14; 1 µM): 17%
"TTTCCATTTATTTCCATTT (sugars lddddldddddddldllll, PS)",–,–,–,target mRNA inhibition (SNHG14; 7.5 µM): 54%
"TTTCCATTTATTTCCATTT (sugars lddldldddddddldddll, PS)",–,–,–,target mRNA inhibition (SNHG14; 7.5 µM): 53%
"TTTTAACCAGAGTGGC (sugars l1 d11 l4, PS)",–,–,–,target mRNA inhibition (SNHG14; 7.5 µM): 53%
"TTTTATACCTTTCTTTAACC (sugars ldlddddddddddlddllll, PS)",–,–,–,target mRNA inhibition (SNHG14; 7.5 µM): 64%
"TTTTTATACCTTTCTTTAAC (sugars ldddlldddddddlddddll, PS)",–,–,–,target mRNA inhibition (SNHG14; 7.5 µM): 15%
"TTTTTATACCTTTCTTTAAC (sugars lddldddddddddldlldll, PS)",–,–,–,target mRNA inhibition (SNHG14; 7.5 µM): 61%
"TTTTTATACCTTTCTTTAAC (sugars ldlddldddddddlldddll, PS)",–,–,–,target mRNA inhibition (SNHG14; 7.5 µM): 23%
"TTTTTATACCTTTCTTTAAC (sugars lldllddddddddllddlll, PS)",–,–,–,target mRNA inhibition (SNHG14; 7.5 µM): 60%
"TTTTTTCTTACTATCTTCAA (sugars l1 d13 l1 d2 l3, PS)",–,–,–,target mRNA inhibition (SNHG14; 7.5 µM): 60%
"TTTTTTCTTACTATCTTCAA (sugars ldldldldddddddldddll, PS)",–,–,–,target mRNA inhibition (SNHG14; 7.5 µM): 57%
"TTTTTTTCTTACTATCTTCA (sugars ldddllddddddddddldll, PS)",–,–,–,target mRNA inhibition (SNHG14; 7.5 µM): 50%
"TTTTTTTCTTACTATCTTCA (sugars ldlldddddddddlddldll, PS)",–,–,–,target mRNA inhibition (SNHG14; 7.5 µM): 59%

# — the OligoGym collection
